# Source: patent US10143720B2, “Modulation of hepatitis B virus cccDNA transcription” (DREXEL UNIVERSITY, priority 2012, dated 2018)
# Entries after “also recorded” stand apart in the source; their conditions may differ. Like-named read-outs stand apart in the source and are kept apart here. Where a SMILES comes first, the peptide text is derived from it. [ ]: non-standard residue; d: D form. β3hL = CC(C)C[C@H](N)CC(=O)O; Nva = CCC[C@H](N)C(=O)O
# How the values were obtained:
# WHV = test: WHV-infected woodchuck study; type: in vivo; conditions: by 10 weeks of treatment, expected
# Description: The study uses 10 groups, with 5 animals per group, with drug treatment for 10 weeks followed by 10 weeks off drug (to test durability of affect). Due to variability in the levels of viremia and antigenemia, animals are stratified to groups by WHV viremia and antigenemia levels as determined seven days prior to study start, so that the average levels of both viral markers are evenly distributed among all groups of animals. Animals with abnormally low WHVsAg levels are not used in this study. Compound is administered daily, by a route and frequency to be finalized after bioavailability studies in rodents. The first day of dosing on the study is Study Day 1. Study Day 1 dose levels are calculated on a pretest body weight, and body weights are taken weekly for dose administration. Dosing range is as for the mouse study over four doses, with Group 10 treated with Barraclude as a reference compound (Tennant).
# The primary endpoint is a dose dependent reduction in viremia and antigenemia on and off drug achieving durable off drug reductions.
# The benchmark of positive activity is LFMAU treated animals.
# DHBV = test: Duck hepadnavirus efficacy study; type: in vivo, Peking Ducks; conditions: by 3 weeks of treatment, expected
# Description: Six-week-old Peking Ducks, chronically infected with DHBV type 16 (Alberta Strain), are used. At 6 weeks, viremia and liver mass in ducks tends to have stabilized. Ducks are given, by either i.m. or oral gavage (depending on Aim 4 PK/TK results), test compound (3 dose groups, with dosing amount and frequency to depend on PK results, but aiming to achieve stable serum levels of at least 10 times the tissue culture IC50). There are three dose groups with 5-6 animals per dose group. Control dose groups (6 animals each group) include placebo treated animals and animals treated with either barraclude (1 mg/kg) or lamivudine (40 mg/kg) per day. At least three animals from all dose groups contribute at least one pre treatment and one post treatment liver biopsy. Treatment is for 10 weeks, since this exceeds the time for lamivudine to suppress viremia to beneath detectable levels and the reported ½ life of cccDNA in the duck. Ducks are followed with weekly serum collections for an additional 4 weeks after withdrawal of drug. Serum will be collected weekly.
# Weekly serum is tested for standard “lab values” (hematology, albumin, AST, ALTs, The amount of DHBV viral DNA, sAg, sAb in the circulation is determined. Liver tissue derived from biopsies (some pre treatment and end of treatment from the same animals) is examined for DHBV DNA (cccDNA, replicative forms) and DHBV core (immunostained). […]
# HDAC-I = conditions: cited from earlier work; for HDAC-I inhibitor?: from cited references; for activity against class I HDACs: in words
# [1] = tested on: DHBV transgene integrated in host cellular chromosome; test: DHBV pgRNA transcription from transgene integrated in host cellular chromosome (FIG. 4); type: cell-based
# HBV cccDNA [2] = test: cccDNA-dependent DHBV pgRNA / cccDNA transcription in dstet5 cells; type: cell-based; conditions: for cccDNA transcription: Dstet5 cells; for Selectivity Index (SI): CC50 divided by EC50
# Description: Most HBV producing cells lines produce HBV gene products from an HBV transgene integrated into the host chromosome, and thus cccDNA is not the major source of viral product. This makes screening for drugs that target cccDNA difficult. Cell lines were produced in which viral gene products are dependent upon cccDNA. It was established human Hep G2 and chicken hepatoma (LMH)-stable cell lines for this purpose with tetracycline (tet) regulated HBV/DHBV. […] Upon addition of tet back to media to block transgene transcription, and removal of PFA to allow the viral DNA synthesis in the pgRNA-containing capsid to proceed, there is a rapid decline of viral RNA (day 1 and 2), with an eventual increase to a higher level when cccDNA is made after day 3.
# With a system and conditions under which viral transcripts are produced in a cccDNA dependent manner (FIGS. 1, 2B), approximately 100 compounds were screened, including those from the inventors' in-house small compound library, those present in the inventors' Natural Products collection, and selected compounds including inhibitors of cellular epigenetic modification enzymes, including HDACs, HATs, Sirtuins, histone methyltransferases, histone demethylases and DNA methyltransferases.
# dstet5 cells = test: Toxicity on dstet5 cells; type: cell-based, chicken
# HBV cccDNA [3] = test: HBV cccDNA transcription in HepG2 cells; type: cell-based, HBV in human HepG2 cells
# [4] = cited from earlier work
# [5] = cited from earlier work; remark: listed apart in the source
# Toxicity on dstet5 cells = type: cell-based, chicken; conditions: chicken; dstet5 cells; concentration that reduces 50% of cell viability
# HDAC III = conditions: cited from earlier work; for HDAC III inhibitor (printed in the HDAC-II inhibitor line): from cited references
# HDAC-II = conditions: cited from earlier work; for HDAC-II inhibitor?: from cited references
# HDAC = conditions: relative to Apicidin; cited from earlier work
# cccDNA = conditions: positive drug control; from our screen, Guo 2012; cited from earlier work
# [6] = in Gallus gallus, read-out: HBV cccDNA (EC50, uM)
smiles,measurement,setting,value
Cc1cn([C@H]2O[C@@H](CO)[C@H](O)[C@H]2F)c(=O)[nH]c1=O [LFMAU],HBV viremia and antigenemia,WHV,uniformly lost HBV viremia and even antigenemia
same,HBV viremia and antigenemia,DHBV,uniformly lost HBV viremia and even antigenemia
"CCC(=O)CCCCC[C@@H]1NC(=O)[C@H]2CCCCN2C(=O)[C@H]([C@@H](C)CC)NC(=O)[C@H](Cc2cn(OC)c3ccccc23)NC1=O [Apicidin, cyclo(N—O-methyl-L-tryptophanyl-L-isoleucinyl-D-pipecolinyl-L-2-amino-8-oxodecanoyl)]",HDAC-I inhibitor?,HDAC-I,"YES^4,5"
same,activity against class I HDACs,HDAC-I,nanomolar activity; also recorded: efficiently inhibits
same,DHBV pgRNA transcription from transgene integrated in host cellular chromosome,[1],dose-dependently stimulate
same,"activity against the DHBV, in culture",HBV cccDNA [2],highly active
same,cccDNA transcription,HBV cccDNA [2]; FIG. 3,repress
same,EC50,"HBV cccDNA [2]; FIG. 3, read-out: inhibition of cccDNA, EC50",~0.18 µM
same,EC50,"HBV cccDNA [2]; dstet5 system, concentration that reduces 50% of the HBV specific signal (RNA and/or HBeAg), read-out: HBV cccDNA (EC50)",0.183 µM
same,toxicity,dstet5 cells; at up to 20 uM for five days,no toxicity
same,CC50,"dstet5 cells; dstet5 cells, concentration that reduces 50% of cell viability",> 20000 nM
same,HBV cccDNA transcription,HBV cccDNA [3],repress
same,cccDNA levels,HBV cccDNA [3],reduced
same,aqueous solubility,[4],very poor
same,half life in vivo,[5],very poor
same,oral bioavailability,"[5]; in vivo, po",very poor
CC(/C=C/C(=O)NO)=C\[C@@H](C)C(=O)c1ccc(N(C)C)cc1 [Trichostatin A],HDAC-I inhibitor?,HDAC-I,"YES^5,6,9"
same,activity against class I HDACs,HDAC-I,inhibited
same,DHBV pgRNA transcription from transgene integrated in host cellular chromosome,[1],dose-dependently stimulate
same,Selectivity Index (SI),HBV cccDNA [2],>40
same,cccDNA transcription,HBV cccDNA [2]; FIG. 3,repress
same,EC50,HBV cccDNA [2]; [6],0.48 µM
same,CC50,Toxicity on dstet5 cells,> 20000 nM
same,effect on class III HDACs (sirtuins),HDAC III; in words,not affected
same,HBV cccDNA transcription,HBV cccDNA [3],repress
same,cccDNA levels,HBV cccDNA [3],reduced
same,HDAC-II inhibitor?,HDAC-II,"YES^4,5,6,9"
same,activity against class II HDACs,HDAC-II; in words,inhibited
CN(C)c1ccc(C(=O)NCCCCCCC(=O)NO)cc1 [4-(dimethylamino)-N-[7-(hydroxyamino)-7-oxoheptyl] benzamide],HDAC-I inhibitor?,HDAC-I,"YES^4,7"
same,Selectivity Index (SI),HBV cccDNA [2],>16
same,EC50,HBV cccDNA [2]; [6],6.25 µM
same,CC50,Toxicity on dstet5 cells,> 100000 nM
same,HDAC III inhibitor (printed in the HDAC-II inhibitor line),HDAC III,"HDAC III^7,11"
same,HDAC-II inhibitor?,HDAC-II,YES &
CCC[C@@H]1NC(=O)[C@H](C)NC(=O)C[C@H](CC(C)C)NC(=O)[C@H](Cc2c[nH]c3ccccc23)NC1=O [analog 2] (cyclo(A[Nva]W[β3hL])),anti HDAC potency,HDAC,without loss of anti HDAC potency
O=C(CN(c1cc(C(F)(F)F)ccc1Cl)S(=O)(=O)c1ccccc1)NCc1ccncc1 [CCC-0975],cccDNA formation,cccDNA,inhibits
"O=C(CCCCCCC(=O)NO)NO [Suberoyl bis hydroxamic acid (SBHA), Suberoyl bis hydroxamic acid]",HDAC-I inhibitor?,HDAC-I,"YES^4,6,7,10"
same,Selectivity Index (SI),HBV cccDNA [2],>16
same,EC50,HBV cccDNA [2]; [6],2.5 µM
same,CC50,Toxicity on dstet5 cells,> 40000 nM
same,HDAC III inhibitor (printed in the HDAC-II inhibitor line),HDAC III,HDAC III^11
same,HDAC-II inhibitor?,HDAC-II,YES &
CCC(=O)CCCCC[C@@H]1NC(=O)Cn2cc(nn2)[C@H](C(C)CC)NC(=O)[C@H](Cc2c[nH]c3ccccc23)NC1=O (stereo partly shown) [analog 1],anti HDAC potency,HDAC,without loss of anti HDAC potency
